One data set addresses cdk2/cyclinE (Homo sapiens, UniProt P24941). In words: Cyclin dependent kinase 2 assay (cdk2/cyclinE), 32P incorporation, filter plate. Type of data set: biochemical. The settings on record: retinoblastoma substrate, 12 mM ATP, 25° C., 15 minutes; read-out: Inhibition of Cdks: IC50 Cdk2/E. In short, it runs like this: (§1)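 Radiometric filter assay: 20 ng cdk1/B, cdk2/A or cdk2/E with 1 μg retinoblastoma substrate in 20 mM Tris pH 7.4, 50 mM NaCl, 1 mM DTT, 10 mM MgCl2, […] plus [32P]ATP. Started with ATP, 15 min at 25 °C, stopped and precipitated with TCA; 32P incorporation counted for IC50.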

Data set [1] has as its target T1, FGF-1 (flg) receptor tyrosine kinase (FGFr) (Homo sapiens, UniProt P11362).
T1 construct: amplify a fragment of DNA that codes for the intracellular tyrosine kinase domain; made in house; host or cells: SF9 insect cells (baculovirus); crude cell lysate used
The experiment in a line: FGF Receptor Tyrosine Kinase Assay. The settings on record: glutamate-tyrosine co-polymer substrate; for inhibition at 50 µM: at 50 μM compound, read-out: Inhibition of Tyrosine Kinases: % Inhibition at 50 μM FGFr; for IC50: read-out: Inhibition of Tyrosine Kinases: IC50 in parenthesis FGFr. Type of data set: biochemical. From the text:
(§2) PDGF and FGF Receptor Tyrosine Kinase Assays
(§3) Full-length cDNAs for the mouse PDGF-β and human FGF-1 (flg) receptor tyrosine kinases are obtained from J. Escobedo and prepared as described in J. Biol. Chem. 1991; 262:1482-1487. PCR primers are designed to amplify a fragment of DNA that codes for the intracellular tyrosine kinase domain. The fragment is inserted into a baculovirus vector, cotransfected with AcMNPV DNA, and the recombinant virus isolated. SF9 insect cells are infected with the virus to overexpress the protein, and the cell lysate is used for the assay. Assays are performed in 96-well plates (100 μL/incubation/well), and conditions are optimized to measure the incorporation of ^32P from γ^32P-ATP into a glutamate-tyrosine co-polymer substrate. Briefly, to each well is added 82.5 μL of incubation buffer containing 25 mM Hepes (pH 7.0), 150 mM NaCl, 0.1% Triton X-100, 0.2 mM PMSF, 0.2 mM Na3VO4, 10 mM MnCl2, and 750 μg/mL of Poly (4:1) glutamate-tyrosine followed by 2.5 μL of inhibitor and 5 μL of enzyme lysate (7.5 μg/μL FGF-TK or 6.0 μg/μL PDGF-TK) to initiate the reaction. Following a 10-minute incubation at 25° C. […] of γ^32P-ATP (0.4 μCi plus 50 μM ATP) is added to each well, and samples are incubated for an additional 10 minutes at 25° C. The reaction is terminated by the addition of 100 μL of 30% trichloroacetic acid (TCA) containing 20 mM sodium pyrophosphate and precipitation of material onto glass fiber mats (Wallac). Filters are washed 3 times with 15% TCA containing 100 mM sodium pyrophosphate, and the radioactivity retained on the filters counted in a Wallac 1250 Betaplate reader. Nonspecific activity is defined as radioactivity retained on the filters following incubation of samples with buffer alone (no enzyme). Specific enzymatic activity (enzyme plus buffer) is defined as total activity minus nonspecific activity.

The target in a further data set is cdk1/cyclinB (Homo sapiens, UniProt P06493). The experiment in a line: Cyclin dependent kinase 1 assay (cdk1/cyclinB), 32P incorporation, filter plate. The settings on record: retinoblastoma substrate, 12 mM ATP, 25° C., 15 minutes; read-out: Inhibition of Cdks: IC50 Cdk1/B. Format: biochemical. An outline of the steps:
as §1

In the next data set the target is cdk2/cyclinA (Homo sapiens, UniProt P24941). In words: Cyclin dependent kinase 2 assay (cdk2/cyclinA), 32P incorporation, filter plate. Type of data set: biochemical. Conditions: retinoblastoma substrate, 12 mM ATP, 25° C., 15 minutes; read-out: Inhibition of Cdks: IC50 Cdk2/A. An outline of the steps: as §1
A further data set addresses cdk4/cyclinD (Homo sapiens, UniProt P11802). In words: Cyclin Dependent Kinase 4 (cdk-4) Assay, 32P incorporation, filter plate. Type of data set: biochemical. Conditions: retinoblastoma substrate, 25 μM ATP, 25° C., 15 minutes; read-out: Inhibition of Cdks: IC50 Cdk4D. In short, it runs like this:
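Filter-plate radiometric assay for IC50s: 20 ng cdk4 with 1 μg retinoblastoma substrate in 20 mM TRIS pH 7.4, 50 mM NaCl, 1 mM DTT, 10 mM MgCl2. Started with 25 μM ATP plus [32P]ATP and run 15 min at 25° C, then stopped with TCA. Precipitated substrate was washed and 32P incorporation counted.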

The target of data set [2] is T2, PDGF-β receptor tyrosine kinase (PDGFr) (Mus musculus, UniProt P05622).
T2 construct: amplify a fragment of DNA that codes for the intracellular tyrosine kinase domain; made in house; host or cells: SF9 insect cells (baculovirus); crude cell lysate used
In words: PDGF Receptor Tyrosine Kinase Assay. Type of data set: biochemical. The settings on record: glutamate-tyrosine co-polymer substrate; for inhibition at 50 µM: at 50 μM compound, read-out: Inhibition of Tyrosine Kinases: % Inhibition at 50 μM PDGFr; for IC50: read-out: Inhibition of Tyrosine Kinases: IC50 in parenthesis PDGFr.
Description: as §2, §3

Results on 10 molecules are retold here after patent US7053070B2, “Pyrido[2,3-d]pyrimidine-2,7-diamine kinase inhibitors” (Warner-Lambert Company, priority 2000, dated 2006).

SMILES strings stand for the structures. Some results are limits rather than exact numbers.

T2 sequence (P05622 599-961 limits assumed): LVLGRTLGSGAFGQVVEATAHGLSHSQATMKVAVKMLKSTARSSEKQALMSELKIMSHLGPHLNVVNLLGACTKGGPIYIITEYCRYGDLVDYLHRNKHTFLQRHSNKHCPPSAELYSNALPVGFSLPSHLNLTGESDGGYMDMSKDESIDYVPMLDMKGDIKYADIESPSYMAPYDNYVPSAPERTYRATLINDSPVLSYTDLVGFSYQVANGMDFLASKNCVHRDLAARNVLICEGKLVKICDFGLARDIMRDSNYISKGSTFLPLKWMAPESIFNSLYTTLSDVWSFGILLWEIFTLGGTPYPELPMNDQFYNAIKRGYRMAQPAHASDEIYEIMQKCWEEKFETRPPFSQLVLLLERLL
T1 sequence (P11362 478-767 limits assumed): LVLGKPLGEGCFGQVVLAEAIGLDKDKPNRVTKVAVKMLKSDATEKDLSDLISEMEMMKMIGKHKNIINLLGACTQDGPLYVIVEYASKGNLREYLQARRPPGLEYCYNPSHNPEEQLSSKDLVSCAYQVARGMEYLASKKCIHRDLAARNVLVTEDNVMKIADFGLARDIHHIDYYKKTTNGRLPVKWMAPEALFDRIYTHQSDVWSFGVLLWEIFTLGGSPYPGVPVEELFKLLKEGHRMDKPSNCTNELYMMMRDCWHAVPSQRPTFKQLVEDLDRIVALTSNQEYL
Chain of cdk4/cyclinD (P11802 whole entry, species assumed): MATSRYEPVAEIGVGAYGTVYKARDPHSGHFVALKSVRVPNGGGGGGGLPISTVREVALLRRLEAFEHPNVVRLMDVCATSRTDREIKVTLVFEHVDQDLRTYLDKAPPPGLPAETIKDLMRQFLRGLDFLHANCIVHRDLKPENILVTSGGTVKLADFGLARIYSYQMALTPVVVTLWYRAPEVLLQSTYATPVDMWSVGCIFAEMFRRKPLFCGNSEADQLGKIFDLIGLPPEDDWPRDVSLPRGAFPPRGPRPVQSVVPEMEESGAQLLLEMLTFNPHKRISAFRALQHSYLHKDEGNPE
Chain of cdk4/cyclinD (P24385 whole entry partner, species assumed): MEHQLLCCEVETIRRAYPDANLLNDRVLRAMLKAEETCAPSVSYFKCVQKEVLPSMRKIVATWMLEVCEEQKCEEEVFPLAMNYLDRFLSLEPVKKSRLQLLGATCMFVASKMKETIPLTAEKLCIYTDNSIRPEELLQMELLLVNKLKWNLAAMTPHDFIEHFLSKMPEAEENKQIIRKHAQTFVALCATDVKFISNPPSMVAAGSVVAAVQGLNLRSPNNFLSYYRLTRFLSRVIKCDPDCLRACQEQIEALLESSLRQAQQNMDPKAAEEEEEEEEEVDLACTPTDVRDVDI
Chain of cdk1/cyclinB (P06493 whole entry, species assumed): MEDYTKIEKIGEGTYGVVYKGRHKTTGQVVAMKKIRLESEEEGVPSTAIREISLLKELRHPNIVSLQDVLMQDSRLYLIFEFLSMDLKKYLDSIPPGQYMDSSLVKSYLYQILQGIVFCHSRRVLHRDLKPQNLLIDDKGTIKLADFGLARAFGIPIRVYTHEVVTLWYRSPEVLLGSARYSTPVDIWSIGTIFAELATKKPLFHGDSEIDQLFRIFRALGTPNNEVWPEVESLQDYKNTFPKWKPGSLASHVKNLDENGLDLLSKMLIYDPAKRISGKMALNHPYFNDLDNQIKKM
Chain of cdk1/cyclinB (P14635 whole entry partner, species assumed): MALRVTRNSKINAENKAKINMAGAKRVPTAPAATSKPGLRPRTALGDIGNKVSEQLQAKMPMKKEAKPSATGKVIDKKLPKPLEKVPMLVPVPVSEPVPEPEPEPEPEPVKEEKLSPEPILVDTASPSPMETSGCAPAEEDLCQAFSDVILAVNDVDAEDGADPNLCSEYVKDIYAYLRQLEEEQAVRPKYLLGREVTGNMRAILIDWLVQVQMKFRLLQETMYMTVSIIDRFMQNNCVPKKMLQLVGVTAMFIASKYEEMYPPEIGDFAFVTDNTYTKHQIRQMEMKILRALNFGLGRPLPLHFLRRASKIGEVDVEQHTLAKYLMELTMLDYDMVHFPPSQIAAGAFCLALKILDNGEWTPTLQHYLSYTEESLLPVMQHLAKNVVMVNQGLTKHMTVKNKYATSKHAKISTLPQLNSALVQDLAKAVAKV

As to `CC(C)(C)NC(=O)Nc1ccc2cnc(Nc3ccc(N4CCNCC4)cc3)nc2n1` [Compound 1, 1-tert-Butyl-3-[2-(4-piperazin-1-yl-phenylamino)-pyrido[2,3-d]pyrimidin-7-yl]-urea], the IC50 at cdk2/cyclinE amounted to 130 nM; at cdk1/cyclinB, 219 nM; on cdk2/cyclinA, 60 nM; at cdk4/cyclinD it was 6 nM; in data set [2], 593 nM. Also, the inhibition at 50 µM in data set [1] is 93.7%; in data set [2], 94.4%.

`O=C(Nc1ccc2cnc(Nc3ccc(N4CCNCC4)cc3)nc2n1)NC1CCCCC1` [Compound 9, 1-Cyclohexyl-3-[2-(4-piperazin-1-yl-phenylamino)-pyrido[2,3-d]pyrimidin-7-yl]-urea]: the IC50 stood at 20 nM at cdk2/cyclinE, 27 nM on cdk1/cyclinB, 10 nM on cdk2/cyclinA and 5 nM on cdk4/cyclinD. Besides, in data set [1], the inhibition at 50 µM worked out at 89.8%.

With `O=C(Nc1nc2nc(Nc3ccc(N4CCNCC4)cc3)ncc2cc1F)NC1CCCCC1` [Compound 11, 1-Cyclohexyl-3-[6-fluoro-2-(4-piperazin-1-yl-phenylamino)-pyrido[2,3-d]pyrimidin-7-yl]-urea], the IC50 amounted to 125 nM on cdk2/cyclinE; 284 nM in data set [1]; 159 nM on cdk1/cyclinB; 92 nM at cdk2/cyclinA; 11 nM at cdk4/cyclinD; 131 nM in data set [2].

As for `CC(C)(C)NC(=O)Nc1ccc2cnc(Nc3ccccc3)nc2n1` [Compound 45, 1-tert-Butyl-3-(2-phenylamino-pyrido[2,3-d]pyrimidin-7-yl)-urea], the melting point is 227 °C (dec.). The IC50 at cdk2/cyclinE was determined as 110 nM. For the same molecule, in data set [1], the inhibition at 50 µM was 67.4%. In addition, the IC50 at cdk1/cyclinB is 552 nM. Also, the IC50 at cdk2/cyclinA was 54 nM. In addition, at cdk4/cyclinD, the IC50 came to 45 nM. Besides, the inhibition at 50 µM in data set [2] worked out at 21.9%.

On to `Cc1cc(Nc2ncc3ccc(NC(=O)NC(C)(C)C)nc3n2)ccc1F` [Compound 46, 1-tert-Butyl-3-[2-(4-fluoro-3-methyl-phenylamino)-pyrido[2,3-d]pyrimidin-7-yl]-urea], for which the melting point is 230 °C (dec.). At cdk2/cyclinE, the IC50 was 300 nM. In addition, the inhibition at 50 µM in data set [1] stood at 19.5%. Also, the IC50 on cdk1/cyclinB came out at 75 nM. Besides, the IC50 on cdk4/cyclinD is greater than 5000 nM. Also, the inhibition at 50 µM in data set [2] came to 17.5%.

Molecule `Cc1cc(Nc2ncc3ccc(NC(=O)Nc4ccc(Cl)cc4)nc3n2)ccc1F` [Compound 47, 1-(4-Chloro-phenyl)-3-[2-(4-fluoro-3-methyl-phenylamino)-pyrido[2,3-d]pyrimidin-7-yl]-urea] registered a melting point greater than 250 °C. Moreover, at cdk2/cyclinE, the IC50 is greater than 5000 nM. In data set [1], the inhibition at 50 µM came to 10.5%. Also, the IC50 on cdk1/cyclinB was greater than 5000 nM. Also, the IC50 at cdk2/cyclinA is greater than 5000 nM. Also, the IC50 at cdk4/cyclinD was greater than 5000 nM.

With `O=C(Nc1nc2nc(Nc3ccc(N4CCNCC4)cc3)ncc2cc1Br)NC1CCCCC1` [Compound 55, 1-[6-Bromo-2-(4-piperazin-1-yl-phenylamino)-pyrido[2,3-d]pyrimidin-7-yl]-3-cyclohexyl-urea], the melting point was 195 °C (dec.). In addition, at cdk2/cyclinE, the IC50 was greater than 5000 nM. Also, in data set [1], the IC50 came out at 151 nM. Moreover, at cdk1/cyclinB, the IC50 is greater than 5000 nM. Moreover, the IC50 at cdk2/cyclinA was greater than 5000 nM. For the same molecule, the IC50 at cdk4/cyclinD came to 300 nM. For the same molecule, the IC50 in data set [2] was found to be 33 nM.

Consider `CN(C(=O)NC1CCCCC1)c1ccc2cnc(Nc3ccc(N4CCNCC4)cc3)nc2n1` [Compound 70, 3-Cyclohexyl-1-methyl-1-[2-(4-piperazin-1-yl-phenylamino)-pyrido[2,3-d]pyrimidin-7-yl]-urea], for which the melting point fell in the range of 169 to 175 °C. In addition, the IC50 on cdk2/cyclinE came to 530 nM. Also, the IC50 in data set [1] was 1150 nM. Further, on cdk1/cyclinB, the IC50 was 1450 nM. In addition, the IC50 on cdk2/cyclinA is 697 nM. Moreover, the IC50 on cdk4/cyclinD is 17 nM. The IC50 in data set [2] is 536 nM.

Consider `CC(C)(C)OC(=O)N1CCN(c2ccc(Nc3ncc4ccc(NC(=O)NC5CCCCC5)nc4n3)cc2)CC1` [Compound 80], for which the melting point was 241 °C (dec.). For the same molecule, at cdk2/cyclinE, the IC50 was found to be 230 nM. Further, in data set [1], the inhibition at 50 µM stood at 18.6%. The IC50 on cdk1/cyclinB is 461 nM. For the same molecule, the IC50 at cdk2/cyclinA turned out to be 92 nM. Further, the IC50 on cdk4/cyclinD came out at 460 nM.

On to `Cc1cc2cnc(Nc3ccc(N4C[C@@H](C)N[C@@H](C)C4)cc3)nc2nc1NC(=O)NC(C)(C)C` [Compound 117, 1-tert-Butyl-3-{2-[4(cis-3,5-dimethyl-piperazin-1-yl)-phenylamino]-6-methyl-pyrido[2,3-d]pyrimidin-7-yl}-urea], for which the IC50 was 4000 nM at cdk2/cyclinE; 61 nM in data set [1]; greater than 5000 nM on cdk1/cyclinB; greater than 5000 nM on cdk2/cyclinA; 76 nM at cdk4/cyclinD; 81 nM in data set [2].

By inhibition is commonly meant the share of the control response that was lost under treatment. The melting point is the temperature of the solid-liquid transition.
